Test results: PMC3086806, “Mining a Cathepsin Inhibitor Library for New Antiparasitic Drug Leads” (PLoS Neglected Tropical Diseases, 2011)

Tests used:
[1] = test system: T. brucei brucei clone 427-221a bloodstream forms; assay: T. brucei brucei growth inhibition assay; type: cell-based; details: Trypanosoma brucei; 40 hours
Method: The growth inhibition assay for T. brucei brucei was conducted as described previously. Bloodstream forms of the monomorphic T. brucei brucei clone 427-221a were grown in complete HMI-9 medium containing 10% FBS, 10% Serum Plus medium (Sigma Inc. St. Louis Mo. USA), 50 U/mL penicillin and 50 µg/mL streptomycin (Invitrogen) at 37°C under a humidified atmosphere and 5% CO2. […] 5 µL of each dilution was added to 95 µL of diluted parasites (1×10^4 cells per well) in sterile Greiner 96-well flat white opaque culture plates such that the final DMSO concentration was 0.5%. The 0% inhibition control wells contained 0.5% DMSO while 100% inhibition control wells contained 50 µM thimerosal (Sigma). After compound addition, plates were incubated for 40 hours at 37°C. At the end of the incubation period, 50 µL of CellTiter-Glo™ reagent (Promega Inc., Madison, WI, USA) was added to each well and plates were placed on an orbital shaker at room temperature for 2 min to induce lysis. After an additional 10 min incubation without shaking to stabilize the signal, the ATP-bioluminescence of each well was determined using an Analyst HT plate reader (Molecular Devices, Sunnyvale, CA, USA). Raw values were converted to log10 and percentage inhibition calculated relative to the controls. IC50 curve fittings were performed with Prism 4 software as above.

falcipain-3 = biological target: T1, falcipain-3 (Plasmodium falciparum, UniProt Q8IIL0); assay: Falcipain-3 protease inhibition assay (Z-Leu-Arg-AMC); type: biochemical; details: read-out: IC50 falcipain-3
T1 construct: made in house
T1 sequence (Q8IIL0 243-492): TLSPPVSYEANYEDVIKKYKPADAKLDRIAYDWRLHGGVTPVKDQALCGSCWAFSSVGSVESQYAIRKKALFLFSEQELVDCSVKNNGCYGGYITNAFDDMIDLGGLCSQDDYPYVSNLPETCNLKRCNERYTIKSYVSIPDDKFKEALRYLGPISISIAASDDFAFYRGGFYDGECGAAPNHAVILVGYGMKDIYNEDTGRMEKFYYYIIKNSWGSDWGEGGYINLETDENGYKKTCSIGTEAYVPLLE
Method: (§1) Recombinant cruzain, rhodesain, TbCatB, falcipain-2 and falcipain-3 were expressed as described previously, [39], [40], [41], [42]. Inhibitor stock solutions were prepared in DMSO and screened at 0.1 µM for cruzain and rhodesain, 1 µM for TbCatB and 50 nM for falcipain-3 (0.5% DMSO in assay). […] Protease inhibition assays for cruzain and rhodesain were carried out in 96 well plate format as described previously. Cruzain (4 nM), rhodesain (4 nM) or TbCatB (258 nM) was incubated with test compound in 100 mM sodium acetate, pH 5.5, containing 5 mM DTT and 0.01% Triton X-100 (buffer A), for 5 min at room temperature (the higher concentration of TbCatB was required due to its lower intrinsic activity against the fluorogenic substrate). Then buffer A containing Z-Phe-Arg-AMC (Bachem) was added to enzyme-compound mixture to give 10 µM substrate in a final assay volume of 200 µL. The rate of free AMC release was measured at excitation and emission wavelengths of 355 and 460 nm, respectively, with a microtiter plate spectrofluorimeter (SpectraMax M5, Molecular Devices) for 3 min. Percentage inhibition of test compound was calculated relative to the DMSO control (0% inhibition control). IC50 values were determined with Prism 4 software (GraphPad, San Diego, CA) using sigmoidal dose-response variable slope model.
(§2) Protease inhibition assays for falcipain-2 and falcipain-3 were carried out in 96 well plate format as described previously, [43] with modification for end-point readout. Falcipain-2 (21 nM) or falcipain-3 (78 nM) was incubated with test compound for 10 min at room temperature in 200 mM sodium acetate, pH 6, 10 mM DTT and 3.6% glycerol and 0.01% Triton X-100 (buffer B). Then buffer B containing Z-Leu-Arg-AMC (Bachem) was added to the enzyme-compound mixture to give 25 µM substrate in a final assay volume of 200 µL. After 15 min, 50 µL of 5 M acetic acid was added to each well to stop the reaction. End-point fluorescence was read in a spectrofluorimeter as above. The 0% inhibition control wells contained DMSO while 100% inhibition control wells contained 50 µM E-64 (Sigma). Percentage inhibition of test compound was calculated relative to the controls and IC50 curve fitting was performed with Prism 4 software as above.

rhodesain = biological target: T2, rhodesain (Trypanosoma brucei rhodesiense, UniProt Q95PM0); assay: Rhodesain protease inhibition assay (Z-Phe-Arg-AMC); type: biochemical; details: for Fold more potent inhibition of rhodesain than TbCatB: rhodesain vs TbCatB IC50
T2 construct: made in house
T2 sequence (Q95PM0 entry or part of it): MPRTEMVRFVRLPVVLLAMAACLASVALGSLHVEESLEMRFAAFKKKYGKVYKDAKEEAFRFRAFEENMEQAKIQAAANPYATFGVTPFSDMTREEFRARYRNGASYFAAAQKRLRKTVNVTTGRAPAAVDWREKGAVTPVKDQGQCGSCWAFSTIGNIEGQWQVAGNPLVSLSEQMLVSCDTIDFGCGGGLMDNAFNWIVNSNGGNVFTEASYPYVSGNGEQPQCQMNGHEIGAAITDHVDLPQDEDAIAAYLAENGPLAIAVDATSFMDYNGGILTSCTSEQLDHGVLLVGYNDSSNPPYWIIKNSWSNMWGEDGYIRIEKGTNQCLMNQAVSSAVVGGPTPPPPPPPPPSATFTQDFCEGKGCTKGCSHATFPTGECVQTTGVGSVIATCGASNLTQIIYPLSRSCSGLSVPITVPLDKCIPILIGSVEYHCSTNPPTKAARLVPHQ
Method: as §1

falcipain-2 = biological target: T3, falcipain-2 (Plasmodium falciparum, UniProt Q8I6U4); assay: Falcipain-2 protease inhibition assay (Z-Leu-Arg-AMC); type: biochemical
T3 construct: made in house
T3 sequence (Q8I6U4 244-484): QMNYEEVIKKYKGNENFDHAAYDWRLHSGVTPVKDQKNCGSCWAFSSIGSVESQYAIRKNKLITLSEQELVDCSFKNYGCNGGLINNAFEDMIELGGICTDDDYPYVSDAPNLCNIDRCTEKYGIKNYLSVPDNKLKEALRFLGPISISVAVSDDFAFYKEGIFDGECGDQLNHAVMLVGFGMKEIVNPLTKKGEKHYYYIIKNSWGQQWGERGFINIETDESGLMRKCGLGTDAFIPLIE
Method: as §1, §2

human cathepsin B = biological target: human cathepsin B; set-up: method as in data provided by Celera Genomics; details: historical data; ref data provided by Celera Genomics; read-out: Ki catB; cited from earlier work

Structure (SMILES): CCCCC(NC(=O)C(Cc1ccccc1)NC(=O)N1CCOCC1)C(=O)c1nc2ccccc2o1 (stereo not drawn) [Compound 19b]
- GI50 [1]: > 25 µM
- IC50 (falcipain-3): 4.9 nM
- IC50 (rhodesain): 1 nM
- Fold more potent inhibition of rhodesain than TbCatB (rhodesain): ~1000 fold
- IC50 (falcipain-2): 4.4 nM
- Ki (human cathepsin B): 42 nM

Structure (SMILES): CCCCC(NC(=O)C(CC(C)C)NC(=O)N1CCOCC1)C(=O)c1nc2ccccc2o1 (stereo not drawn) [Compound 19a]
- GI50 [1]: > 25 µM
- IC50 (falcipain-3): 8.3 nM
- IC50 (rhodesain): 1 nM
- Fold more potent inhibition of rhodesain than TbCatB (rhodesain): ~1000 fold
- IC50 (falcipain-2): 2.1 nM
- Ki (human cathepsin B): 125 nM
